According to patent US6426351B1, “Chelerythrine-based therapies for cancer” (priority 2000, dated 2002):
Read-outs that look alike come from different tables or passages of the source.

Assays:
SQ20B = test: Clonogenic survival of SQ20B with chelerythrine chloride and adriamycin; assay type: cell-based, human
SQ-20B xenografts = test: SQ-20B xenograft tumor growth in nude mice; assay type: in vivo; settings: for mean tumor volume: IP
Method: Athymic (nude) mice were injected SC in the right hind limb with 5×10^6 SQ20B cells. Tumors were allowed to grow for 8 days at which time treatment was started. Control mice were weighed and injected IP with PBS on days 8, 10, and 12. Treatment group 2 (n=10 were injected once IP on days 8, 10, and 12 with 2.5 mg/kg chelerythrine chloride, treatment group 3 (n=8) were injected once IP on days 8, 10, and 12 with 5 mg/kg chelerythrine chloride, and treatment group 4 (n=8) were injected once IP on days 8, 11 and 14 with 5 mg/kg chelerythrine chloride. Tumor volume was determined on days 8, 10, 13, 15, 17, 21. Each data point represents the mean of 1-3 individual studies +/−SEM. The Mann-Whitney Rank Sum Test (p<0.05) denoted in the graphs by “*”.
SQ-20B (1-5×10^6 tumor cells were injected into the right hind limbs of Sprague-Dawley nude mice (Fredrick Cancer Research Institute, Fredrick Md.). Xenografts were grown for 2-3 wk at which time animals were sorted into treatment groups such that the mean tumor volume was 45 mm^3+/−4.5 mm^3 (SD). At day 0, initial tumor volume was determined by direct measurement with calipers, and tumor volume was deterred and calculated using the equation 1×w^2×0.5 (Hallahan et al., 1995). During treatment tumor volumes were measured twice weekly and are presented as percent of original tumor volume. Data are presented as fractional tumor volume +/−SEM. Significance analyzed using the Mann-Whitney Rank Sum Test (p<0.05) and denoted in the graphs by “*”.
(§1) Control mice (n=12) were weighed and injected IP with PBS on days 8, 10, and 12. To determine the proper injection volume, the weight of a mouse (in grams) was divided by 100, and the resulting number (in μl ) was used. Chelerythrine was dissolved in the corresponding volume of PBS. Mice in treatment group 2 (n=10) were injected IP on days 8, 10, and 12 with […]. Treatment group 3 (n=8) mice revere injected IP on days 8, 11, and 14 with 5 mg/kg chelerythrine chloride. Treatment group 4 mice (n=10) were injected IP on days 8, 11, 14, and 17 with 5 mg/kg chelerythrine chloride. Volume was determined on days 8, 10, 13, 15, 17, 21. Body weight was measured on days 8, 9, 10, 11, 12, 13, 14, 15, 16, 17, 18, 21. Each data point represents the mean of 1-3 individual studies (minimum of 8 mice/treatment groups).
Mice bearing SQ-2QB xenografts (n>8 for all groups) were injected IP with 2.5 mg/kg on days 8, 10, 12 (Group 2, n=10), 5mg/kg on days 8, 10, 12 (Group 3, n=8), and 5 mg/kg on days 8, 11, 14 (Group 4, n=8). […] By day 21, the mean tumor volumes measured 370 mm^3 in control group, 215 mm^3 in group 1, 197 mm^3 in group 2, and 115 mm^3 in group 3. […]

SQ20B cells = test: MTT cytotoxicity assay, SQ20B, dependence on exposure time; assay type: cell-based; settings: Homo sapiens, read-out: ED50 (the source's name)
Method: Cytotoxicity was evaluated using modifications of a described MTT assay (Hansen et al., 1989). Briefly, cells growing as a monolayer were plated at a density of 500 cells/well in 96 well-plates and allowed to grow for 24 h. […] 6-13 days after drug treatment, 25 μl of a 5 mg/ml solution of MTT was added to each well followed 4 h later by the addition of 100 μl lysing buffer (20% sodium dodecyl sulfate, 50% N, N-dimethylformamide and 0.8% acetic acid, pH 4.7) for an additional 22 h. A microplate reader set at 570 nm was used to determine the absorbance. Results are expressed as the fraction of the optical density determined for cells treated with drug compared to those treated with vehicle.
(§2) The cytotoxic effects of chelerythrine were evaluated in 9 human tumor cell lines to assess its spectrum of activity. Chelerythrine decreased cell viability as determined by the MTT assay in a dose-dependent manner in MCF7 breast (wt p53)(Blagosklonny et al., 1995), MCF7ADR breast (resistant to adriamycin), HT29 colon (mutant p53)(Shao et al., 1997), DaOY brain (mutant p53)(U et al., 1998), and LnCaP (mutant p53) (Carroll et al., 1993) prostate cells (FIG. 2). The effective dose required to inhibit the growth by 50% of the cells (ED50) ranged between 2 and 5 μM upon exposure to drug for 4 h. […]

[1] = Body weight and deaths in treated xenograft-bearing mice; assay type: in vivo; settings: 2.5-5 mg/kg IP
Method: Mice were weighed on days 8, 9, 10, 11, 12, 13, 14, 15, 16, 17, 18, 21. Symbols represent the mean weight of animals in the representative treatment groups.
as §1
At no time did body weight of any study animal fall below 90% of the initial weight at the beginning of treatment. […] Similar results were obtained in two independent studies.

[2] = test system: MCF7, MCF7ADR, HT29, DaOY and LnCaP cells; test: MTT cytotoxicity assay, tumor cell line panel; assay type: cell-based; settings: Homo sapiens, exposure to drug for 4 h, range over MCF7, MCF7ADR, read-out: ED50 (effective dose required to inhibit the growth by 50% of the cells)
Method: (§3) FIG. 2A depicts that MCF7 (closed circle), MCF7ADR (open circle), HT29 (open square), DAOY (closed triangle) and LnCaP (open triangle) cells were exposed to fresh medium containing increasing concentrations of chelerythrine chloride for 4 h. After 6 days (MCF7, MCF7 ADR, HT29), 7 days (DAOY) or 13 days (LnCAP), MTT analysis was performed to determine cell density. Inhibition of cell growth relative to control (zero drug addition) was calculated for each concentration. Each point represents the mean of three determinations. […] Inhibition of cell growth relative to control (zero drug addition) was calculated for each concentration. […]
(§4) Cytotoxicity was evaluated using modifications of a described MTT assay (Hansen et al., 1989). […] A microplate reader set at 570 nm was used to determine the absorbance. Results are expressed as the fraction of the optical density determined for cells treated with drug compared to those treated with vehicle.
as §2, with “2).” for “2). The effective dose required to inhibit the growth by 50% of the cells (ED50) ranged between 2 and 5 μM upon exposure to drug for 4 h.”

L-1210 tumor cells = settings: cited from earlier work
SQ-20B cells = test: DAPI staining of cell and nuclear morphology (apoptosis); assay type: cell-based, human; settings: 5 μM chelerythrine, 72 h following treatment
Method: DAPI was used to visualize nuclei […] and overlaid to the phase contrast image. Left, untreated control cells, right 5 μM chelerythrine treated cells.
5×10^5 SQ-20B cells were centrifuged at 1000 rpm and resuspended in approximately 100 μl of media. The cell suspension was then […] with 100 μl of DAPI (4′, 6-iamidino-2-phenylindole, Sigma, 1 μg/ml in PBT [PBS+1% Triton X-100]. One drop of this mixture was then placed on a microslide with a coverslip. The cells were viewed by fluorescence microscopy using an Olympus BX-40 microscope with a 100 Watt Mercury lamp, a 16 or 40×Fluorite objective, N.A. 0.75, (Leco #1-UB527) and a UV filter cube (ex 330-385 nm, em 420 nm, wide band pass, Leco #U-M536). Images were photographed using an Optronics cooled low-light video camera (Leco #DEI-470TB) with a 2× coupler (Leco #HR200-CMT). The image was saved to a digital file at 72 dpi for subsequent image processing with Paint Shop Pro 5 (JASC) running on a Windows NT4 workstation.
The inventors examined whether the concentrations of chelerythrine that decrease viability in the MTT assay induce apoptosis of SQ-20B cells. The inventors examined cell and nuclear morphology by DAPI staining (FIG. 3). Following exposure of SQ-20B cells to 5 μM chelerythrine, morphological changes consistent with apoptosis were observed (FIG. 3A) in nearly 100% of the cells 72 h following treatment.

[3] = test system: SQ-20B, JSQ-3, SCC-35 and SCC61 cells; test: MTT cytotoxicity assay, oral tumor cell lines; assay type: cell-based; settings: Homo sapiens, SQ20B, range over SQ-20B, read-out: ED50 (the source's name)
Method: as §3, §4
as §2, with “2).” for “2). The effective dose required to inhibit the growth by 50% of the cells (ED50) ranged between 2 and 5 μM upon exposure to drug for 4 h.”

[4] = Acute lethality (LD50), intraperitoneal; settings: mouse, in vivo; intraperitoneal (IP) in mice; read-out: LD50 (dose causing a 50% mortality)
Method: Basal activity of the enzyme (the activity in the absence of Ca^++, phosphatidylserine and dioleine) was not affected. In the present invention, the LD50 (dose causing a 50% mortality) was 20 mg/kg intraperitoneal (IP) in mice.

| SMILES | survival (clonogenic) (SQ20B; adriamycin 1 ng/mL alone (0 chelerythrine)) | survival (clonogenic) (SQ20B; adriamycin 10 ng/mL alone (0 chelerythrine)) | survival (clonogenic) (SQ20B; adriamycin 50 ng/mL alone (0 chelerythrine)) | percent change in volume of treated tumors compared to control tumors (%T/C) (SQ-20B xenografts; day 21, all treatment groups) | mean tumor volume (SQ-20B xenografts; day 21, group 1 as printed) [mm^3] | mean tumor volume (SQ-20B xenografts; day 21, group 2 as printed) [mm^3] | mean tumor volume (SQ-20B xenografts; day 21, group 3 as printed) [mm^3] | EC50 (SQ20B cells; exposed for 4 h) [nM] | EC50 (SQ20B cells; exposed for 8 h) [nM] | treatment related deaths [1] | body weight relative to the initial weight at the beginning of treatment ([1]; any study animal, at any time) [%] | EC50 [2] [nM] | IC50 (L-1210 tumor cells) [nM] | cells with morphological changes consistent with apoptosis (SQ-20B cells) [%] | EC50 [3] [nM] | LD50 [4] [mg/kg] | survival (clonogenic) (SQ20B; chelerythrine chloride 2 μM alone (0 ng/mL adriamycin)) | survival (clonogenic) (SQ20B; chelerythrine chloride 4 μM alone (0 ng/mL adriamycin)) | survival (clonogenic) (SQ20B; chelerythrine chloride 6 μM alone (0 ng/mL adriamycin)) |
| --- | --- | --- | --- | --- | --- | --- | --- | --- | --- | --- | --- | --- | --- | --- | --- | --- | --- | --- | --- |
| COc1cccc2c1C(=O)c1c(O)c3c(c(O)c1C2=O)C[C@@](O)(C(=O)CO)C[C@@H]3O[C@H]1C[C@H](N)[C@H](O)[C@H](C)O1 [adriamycin, reference compound] | 1.09 | 0.822 | 0.359 |  |  |  |  |  |  |  |  |  |  |  |  |  |  |  |  |
| COc1ccc2c(c[n+](C)c3c4cc5c(cc4ccc23)OCO5)c1OC [chelerythrine, 1,2-dimethoxy-12-methyl[1,3]benzodioxolo[5,6-c]phenanthridinium] |  |  |  | less than 40% | 215 | 197 | 115 | 3700 | 1800 | no treatment related deaths | ≥ 90 | 2000 to 5000 | 53 | ~100 | 4000 to 5200 | 20 | 0.99 | 0.103 | 0.034 |
